Patent publication US10533010B2, “Substituted indole Mcl-1 inhibitors” (Vanderbilt University, priority 2014, dated 2020)

target: recombinant Mcl-1 (residues 172-327) (Homo sapiens (Human), UniProt Q07820); experiment: Fluorescence polarization anisotropy competition assay (FITC-Bak or FITC-Bim BH3 peptide) with Mcl-1; type: binding; settings: Table 2; Ki bins given in nM; FITC-Bak or FITC-Bim peptide competition; Ki converted from IC50; read-out: Ki for Inhibition of Mcl-1
Sequence (Q07820 172-327): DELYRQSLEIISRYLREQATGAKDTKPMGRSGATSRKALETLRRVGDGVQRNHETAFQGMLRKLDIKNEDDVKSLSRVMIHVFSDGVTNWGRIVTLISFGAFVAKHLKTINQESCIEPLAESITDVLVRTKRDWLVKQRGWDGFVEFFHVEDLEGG

Row | Structure (SMILES) | Ki
1 | Cc1cc(OCCCc2c3n(c4c(-c5c(C)nn(C)c5C)c(Cl)ccc24)CCC(C)N(Cc2ccc(C(=O)O)cc2)C3=O)cc(C)c1Cl (centres unmarked) [I-127, 4-((8-chloro-11-(3-(4-chloro-3,5-dimethylphenoxy)propyl)-3-methyl-1-oxo-7-(1,3,5-trimethyl-1H-pyrazol-4-yl)-4,5-dihydro-1H-[1,4]diazepino[1,2-a]indol-2(3H)-yl)methyl)benzoic acid] | < 50 nM
2 | Cc1cc(OCCCc2c(C(=O)Nc3ccc(C(=O)O)c(N4CCN(C)CC4)c3)[nH]c3c(-c4c(C)nn(C)c4C)c(Cl)ccc23)cc(C)c1Cl [I-90, 4-(6-chloro-3-(3-(4-chloro-3,5-dimethylphenoxy)propyl)-7-(1,3,5-trimethyl-1H-pyrazol-4-yl)-1H-indole-2-carboxamido)-2-(4-methylpiperazin-1-yl)benzoic acid] | < 50 nM
3 | Cc1cc(OCCCc2c3n(c4c(-c5c(C)nn(C)c5C)c(Cl)ccc24)[C@@H](C)CN(c2cc(C(=O)O)c4ccn(C)c4c2)C3=O)cc(C)c1Cl [I-169, (S)-6-(7-chloro-10-(3-(4-chloro-3,5-dimethylphenoxy)propyl)-4-methyl-1-oxo-6-(1,3,5-trimethyl-1H-pyrazol-4-yl)-3,4-dihydropyrazino[1,2-a]indol-2(1H)-yl)-1-methyl-1H-indole-4-carboxylic acid] | < 50 nM
4 | Cc1cc(OCCCc2c3n(c4c(-c5c(C)nn(C)c5C)c(Cl)ccc24)CCC(C)N(Cc2cccc(C(=O)O)c2)C3=O)cc(C)c1Cl (centres unmarked) [I-125, 3-((8-chloro-11-(3-(4-chloro-3,5-dimethylphenoxy)propyl)-3-methyl-1-oxo-7-(1,3,5-trimethyl-1H-pyrazol-4-yl)-4,5-dihydro-1H-[1,4]diazepino[1,2-a]indol-2(3H)-yl)methyl)benzoic acid] | < 50 nM
5 | Cc1cc(OCCCc2c3n(c4c(-c5c(C)nn(C)c5C)c(Cl)ccc24)CCN(Cc2ccc(C(=O)O)cc2)C3=O)cc(C)c1Cl [I-140, 4-((7-chloro-10-(3-(4-chloro-3,5-dimethylphenoxy)propyl)-1-oxo-6-(1,3,5-trimethyl-1H-pyrazol-4-yl)-3,4-dihydropyrazino[1,2-a]indol-2(1H)-yl)methyl)benzoic acid] | < 50 nM
6 | Cc1cc(OCCCc2c3n(c4c(-c5c(C)nn(C)c5C)c(Cl)ccc24)C(C)[C@@H](C)N(Cc2ccc(C(=O)O)cc2)C3=O)cc(C)c1Cl (stereo partly drawn) [I-144, 4-(((3R)-7-chloro-10-(3-(4-chloro-3,5-dimethylphenoxy)propyl)-3,4-dimethyl-1-oxo-6-(1,3,5-trimethyl-1H-pyrazol-4-yl)-3,4-dihydropyrazino[1,2-a]indol-2(1H)-yl)methyl)benzoic acid] | < 50 nM
7 | Cc1cc(OCCCc2c3n(c4c(-c5c(C)nn(C)c5C)c(Cl)ccc24)CC(C)CN(Cc2cccc(C(=O)O)c2)C3=O)cc(C)c1Cl (centres unmarked) [I-135, 3-((8-chloro-11-(3-(4-chloro-3,5-dimethylphenoxy)propyl)-4-methyl-1-oxo-7-(1,3,5-trimethyl-1H-pyrazol-4-yl)-4,5-dihydro-1H-[1,4]diazepino[1,2-a]indol-2(3H)-yl)methyl)benzoic acid] | < 50 nM
8 | Cc1cc(OCCCc2c3n(c4c(-c5c(C)nn(C)c5C)c(Cl)ccc24)CCC(C)N(Cc2ccc(C(=O)O)cn2)C3=O)cc(C)c1Cl (centres unmarked) [I-124, 6-((8-chloro-11-(3-(4-chloro-3,5-dimethylphenoxy)propyl)-3-methyl-1-oxo-7-(1,3,5-trimethyl-1H-pyrazol-4-yl)-4,5-dihydro-1H-[1,4]diazepino[1,2-a]indol-2(3H)-yl)methyl)nicotinic acid] | < 50 nM

Next, values leading:

Row | Ki | Structure (SMILES)
9 | < 50 nM | Cc1cc(OCCCc2c(C(=O)NCC(=O)N[C@@H](CC(C)C)C(=O)O)[nH]c3c(-c4c(C)nn(C)c4C)cccc23)cc(C)c1Cl [I-292, (3-(3-(4-chloro-3,5-dimethylphenoxy)propyl)-7-(1,3,5-trimethyl-1H-pyrazol-4-yl)-1H-indole-2-carbonyl)glycyl-L-leucine]
10 | < 50 nM | Cc1cc(OCCCc2c3n(c4c(-c5c(C)nn(C)c5C)c(Cl)ccc24)CCCN(C[C@H]2CC[C@H](C(=O)O)CC2)C3=O)cc(C)c1Cl [I-371, (1r,4r)-4-((8-chloro-11-(3-(4-chloro-3,5-dimethylphenoxy)propyl)-1-oxo-7-(1,3,5-trimethyl-1H-pyrazol-4-yl)-4,5-dihydro-1H-[1,4]diazepino[1,2-a]indol-2(3H)-yl)methyl)cyclohexane-1-carboxylic acid]
11 | < 50 nM | Cc1cc(OCCCc2c(C(=O)N(C)c3cccc(C(=O)O)c3)[nH]c3c(-c4c(C)nn(C)c4C)cccc23)cc(C)c1Cl [I-197, 3-(3-(3-(4-chloro-3,5-dimethylphenoxy)propyl)-N-methyl-7-(1,3,5-trimethyl-1H-pyrazol-4-yl)-1H-indole-2-carboxamido)benzoic acid]
12 | < 50 nM | Cc1cnccc1-c1cc(C(=O)O)cc(N2CCCn3c(c(CCCOc4cc(C)c(Cl)c(C)c4)c4ccc(Cl)c(-c5c(C)nn(C)c5C)c43)C2=O)c1 [I-233, 3-(8-chloro-11-(3-(4-chloro-3,5-dimethylphenoxy)propyl)-1-oxo-7-(1,3,5-trimethyl-1H-pyrazol-4-yl)-4,5-dihydro-1H-[1,4]diazepino[1,2-a]indol-2(3H)-yl)-5-(3-methylpyridin-4-yl)benzoic acid]
13 | < 50 nM | Cc1ccncc1-c1cc(C(=O)O)cc(N2CCCn3c(c(CCCOc4cc(C)c(Cl)c(C)c4)c4ccc(Cl)c(-c5c(C)nn(C)c5C)c43)C2=O)c1 [I-234, 3-(8-chloro-11-(3-(4-chloro-3,5-dimethylphenoxy)propyl)-1-oxo-7-(1,3,5-trimethyl-1H-pyrazol-4-yl)-4,5-dihydro-1H-[1,4]diazepino[1,2-a]indol-2(3H)-yl)-5-(4-methylpyridin-3-yl)benzoic acid]
14 | < 50 nM | Cc1cc(OCCCc2c3n(c4c(-c5c(C)nn(C)c5C)c(Cl)ccc24)CCCN(c2cc(C(=O)O)c4c(Br)cn(C)c4c2)C3=O)cc(C)c1Cl [I-258, 3-bromo-6-(8-chloro-11-(3-(4-chloro-3,5-dimethylphenoxy)propyl)-1-oxo-7-(1,3,5-trimethyl-1H-pyrazol-4-yl)-4,5-dihydro-1H-[1,4]diazepino[1,2-a]indol-2(3H)-yl)-1-methyl-1H-indole-4-carboxylic acid]
15 | < 50 nM | Cc1cc(OCCCc2c3n(c4c(-c5c(C)nn(C)c5C)c(Cl)ccc24)CCCN(CC(=O)O)C3=O)cc(C)c1Cl [I-304, 2-(8-chloro-11-(3-(4-chloro-3,5-dimethylphenoxy)propyl)-1-oxo-7-(1,3,5-trimethyl-1H-pyrazol-4-yl)-4,5-dihydro-1H-[1,4]diazepino[1,2-a]indol-2(3H)-yl)acetic acid]
16 | < 50 nM | Cc1cc(OCCCc2c(C(=O)NCC(=O)O)[nH]c3c(-c4c(C)nn(C)c4C)cccc23)cc(C)c1Cl [I-286, (3-(3-(4-chloro-3,5-dimethylphenoxy)propyl)-7-(1,3,5-trimethyl-1H-pyrazol-4-yl)-1H-indole-2-carbonyl)glycine]
17 | < 50 nM | Cc1cc(OCCCc2c(C(=O)N(C)Cc3ccc(C(=O)O)cc3)n(CCN3CCOCC3)c3c(-c4c(C)nn(C)c4C)c(Cl)ccc23)cc(C)c1Cl [I-374, 4-((6-chloro-3-(3-(4-chloro-3,5-dimethylphenoxy)propyl)-N-methyl-1-(2-morpholinoethyl)-7-(1,3,5-trimethyl-1H-pyrazol-4-yl)-1H-indole-2-carboxamido)methyl)benzoic acid]
